“Also recorded” adds a separate entry of the source. Where a SMILES comes first, the peptide text is derived from it. [ ]: non-standard residue; d: D form. Hyp = O=C(O)[C@@H]1C[C@@H](O)CN1
System: cytokine and chemokine release in human peripheral blood mononuclear cells (hPBMCs)
Assay: Luminex multiplex, 30 cytokines and chemokines, LPS stimulated hPBMCs (Example 9, Study 2), whole panel
Assay type: cell-based
Details: for LPS-induced pro-inflammatory cytokines and chemokines, whole panel (in words): LPS 5 ug/mL 24 hrs, 100 uM to 1 nM
Description: Human PBMCs frozen purchased from ATCC in a cryo-preservative were thawed, washed with Hank's Balanced Salt Solution containing 10% fetal bovine serum, and seeded onto a 24-well plate at a density of 0.5×10^6 cells/well with culture RPMI media containing 10% fetal bovine serum in growth media in a 24 well plate for 24 hrs and maintained at 37° C. in an atmosphere of 95% air and 5% CO2. At the end of 24 hr culture, cells are pretreated with YY-101, YDE-011 and YDE-043 or reference compound, Xiidra® at various concentrations for 2 h before stimulation. An equal volume of 0.5% DMSO is used as a vehicle control. Then, the cells are treated with LPS. Supernatants from treated cells are harvested at 24 hr post-LPS treatment and placed in 96 well for Luminex cytokine & chemokine profiling using a Luminex 200 multiplex assay.
Human PBMCs frozen in a cryopreserve was thawed, washed with Hank's Balanced Salt Solution containing 10% Fetal bovine serum, and seeded onto a 24-well plate at a density of 0.5×10^6 cells/well with culture RPMI media containing 10% Fetal bovine serum in growth media in a 24 well plate for 24 hrs and maintained at 37° C. in an atmosphere of 95% air and 5% CO2.
Treatment Human PBMCs were pretreated with YY-101, YDE-011 and YDE-043 or reference compound; Xiidra® at various concentration (ranging from 1 nM to 100 uM) for 2 h before stimulation. An equal volume of 0.5% DMSO was used as a vehicle control. Then, the cells were treated with LPS at 5 ug/ml. The supernatants from treated cells were harvested at 24 h and placed in a 96 well for Luminex cytokine & chemokine profiling using a Luminex 200 multiplex assay (Luminex; R&D system, USA).
The main study arm with triplicate wells per group in a 24-well plate: • 1. Blank • 2. PBMC: 0.5% DMSO • 3. PBMC+LPS (5 ug/ml) • 4. PBMC+YY-101 100 uM • 5. PBMC+YY-101 10 uM • 6. PBMC+YY-101 1 uM • 7. PBMC+YY-101 0.1 uM • 8. PBMC+YY-101 0.01 uM • 9. PBMC+LPS (5 ug/ml)+Xiidra®100 uM • 10. PBMC+LPS (5 ug/ml)+Xiidra® 10 uM • 11. PBMC+LPS (5 ug/ml)+Xiidra® 1 uM • 12. PBMC+LPS (5 ug/ml)+Xiidra®0.1 uM • 13. PBMC+LPS (5 ug/ml)+Xiidra®0.01 uM • 14. PBMC+LPS (5 ug/ml)+Xiidra®0.001 uM • 15. PBMC+LPS (5 ug/ml)+YY-101 100 uM • 16. PBMC+LPS (5 ug/ml)+YY-101 10 uM • 17. PBMC+LPS (5 ug/ml)+YY-101 1 uM • 18. PBMC+LPS (5 ug/ml)+YY-101 0.1 uM • 19. PBMC+LPS (5 ug/ml)+YY-101 0.01 uM • 20. PBMC+LPS (5 ug/ml)+YY-101 0.001 uM • 21. PBMC+LPS (5 ug/ml)+YDE-011 100 uM • 22. PBMC+LPS (5 ug/ml)+YDE-011 10 uM • 23. PBMC+LPS (5 ug/ml)+YDE-011 1 uM • 24. PBMC+LPS (5 ug/ml)+YDE-011 0.1 uM • 25. PBMC+LPS (5 ug/ml)+YDE-011 0.01 uM • 26. PBMC+LPS (5 ug/ml)+YDE-011 0.001 uM • 27. PBMC+LPS (5 ug/ml)+YDE-043 100 uM • 28. PBMC+LPS (5 ug/ml)+YDE-043 10 uM • 29. PBMC+LPS (5 ug/ml)+YDE-043 1 uM • 30. PBMC+LPS (5 ug/ml)+YDE-043 0.1 uM • 31. PBMC+LPS (5 ug/ml)+YDE-043 0.01 uM • 32. PBMC+LPS (5 ug/ml)+YDE-043 0.001 uM
Multiplex assay was used to measure 30 cytokines and chemokines. The 1:2, 1:10 and 1:200 diluted cell supernatant and serial dilution of the standard were dispensed into a 96 well plate at 50 ul/well. Then, the pre-mixed cocktail of antibody-coated magnetic beads was dispensed at 50 ul/well and incubated at room temperature for 2 h in a horizontal orbital microplate shaker at 800±500 rpm. The beads were washed using a magnetic device to prevent loss. […] The data was calculated with a standard five-parameter logistic nonlinear regression analysis of the data (xPonent software 4.2, USA). […]

Row | Compound | LPS-induced pro-inflammatory cytokines and chemokines, whole panel (in words) | LPS-induced pro-inflammatory cytokines and chemokines, whole panel (in words) (listed as YDE043) | basal levels of cytokine/chemokine production (in words) (no LPS, up to 100 μM)
1 | CC(C)C[C@H](NC(=O)CNC(=O)[C@H](CC(C)C)NC(=O)[C@H](CCC(N)=O)NC(=O)CNC(=O)[C@@H]1C[C@@H](O)CN1)C(=O)N[C@@H](C)C(=O)NCC(=O)N1CCC[C@H]1C(=O)N[C@@H](CCCCN)C(=O)O [YDE-011] (H-[Hyp]GQLGLAGPK-OH) | effectively and potently reduced; also recorded: more potent and effective immunomodulators |  | 
2 | CC(C)C[C@H](NC(=O)[C@H](CCC(N)=O)NC(=O)CNC(=O)[C@@H]1C[C@@H](O)CN1)C(=O)NCC(=O)O [YDE-043] (H-[Hyp]GQLG-OH; N-terminus and C-terminus assumed) | effectively and potently reduced | more potent and effective immunomodulators | 
3 | CC(C)C[C@H](NC(=O)CNC(=O)[C@H](CC(=O)O)NC(=O)[C@H](CCC(N)=O)NC(=O)CNC(=O)[C@@H]1C[C@@H](O)CN1)C(=O)N[C@@H](C)C(=O)NCC(=O)N1CCC[C@H]1C(=O)N[C@@H](CCCCN)C(=O)O [YY-101] (H-[Hyp]GQDGLAGPK-OH; N-terminus and C-terminus assumed) | effectively and potently reduced |  | didn't affect the basal levels of most of cytokine/chemokine production; also recorded: didn't affect the basal levels of cytokine production except TIMP-1
